Laboratory results from patent US20020151581A1, “Glucose and lipid lowering compounds” (priority 1998, published 2002).
Where two headings read alike, the source gives them in different places.

How the values were obtained:
[1] = biological target: T1, recombinant hormone-sensitive lipase (Homo sapiens, UniProt Q05469); assay: Inhibition of recombinant (purified) hormone-sensitive lipase on glycerol-stabilized triolein; type: biochemical; conditions: test compound 100 μM, read-out: % inhibition Purified HSL
T1 construct: made in house
T1 sequence (Q05469 1-1076): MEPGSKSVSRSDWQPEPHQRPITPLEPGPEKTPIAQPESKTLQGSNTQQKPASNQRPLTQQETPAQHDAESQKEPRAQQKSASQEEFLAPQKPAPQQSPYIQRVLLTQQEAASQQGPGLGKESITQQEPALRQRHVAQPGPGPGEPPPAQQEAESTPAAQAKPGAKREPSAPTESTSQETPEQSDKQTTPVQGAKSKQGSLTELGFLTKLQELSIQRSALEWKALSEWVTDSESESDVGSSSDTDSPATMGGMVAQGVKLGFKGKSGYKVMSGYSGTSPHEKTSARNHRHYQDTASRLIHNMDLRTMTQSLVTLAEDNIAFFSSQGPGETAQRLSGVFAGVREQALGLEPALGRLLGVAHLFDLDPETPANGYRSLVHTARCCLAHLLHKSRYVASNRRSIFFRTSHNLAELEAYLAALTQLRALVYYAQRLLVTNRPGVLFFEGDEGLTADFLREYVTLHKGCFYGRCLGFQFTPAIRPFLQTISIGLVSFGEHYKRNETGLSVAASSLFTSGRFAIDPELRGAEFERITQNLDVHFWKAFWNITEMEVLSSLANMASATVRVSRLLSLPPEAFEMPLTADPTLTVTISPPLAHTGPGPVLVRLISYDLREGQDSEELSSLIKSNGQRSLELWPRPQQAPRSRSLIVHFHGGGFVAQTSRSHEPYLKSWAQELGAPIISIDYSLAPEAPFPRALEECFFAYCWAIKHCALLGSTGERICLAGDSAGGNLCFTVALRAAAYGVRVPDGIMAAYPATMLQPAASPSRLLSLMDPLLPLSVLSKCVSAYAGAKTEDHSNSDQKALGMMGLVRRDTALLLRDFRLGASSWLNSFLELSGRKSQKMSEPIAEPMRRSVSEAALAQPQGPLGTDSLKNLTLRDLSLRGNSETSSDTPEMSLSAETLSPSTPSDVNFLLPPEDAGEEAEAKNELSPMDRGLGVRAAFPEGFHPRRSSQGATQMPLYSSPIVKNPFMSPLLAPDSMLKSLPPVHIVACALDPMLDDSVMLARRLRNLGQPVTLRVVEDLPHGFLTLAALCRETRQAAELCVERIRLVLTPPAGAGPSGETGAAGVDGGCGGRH
Description: Recombinant hormone-sensitive lipase protein isolated from a bacterial expression vector was pre-incubated with a compound of the invention (e.g., 100 μM) prior to the addition of substrate, emulsified triolein phosphatidylcholine/phosphatidylinositol (PC/PI), to initiate the reaction. At various time points, aliquots of the reaction were taken, and the level of glycerol used as an index of enzyme activity. Pharmacological specificity is determined by incubating test compound with other mammalian and non-mammalian lipase enzyme systems to assess inhibition of activity. […]
In a similar manner to that described in Example 4 above, 2α-benzoyloxy-4,5,7,8,11αH-eudesman-8,12-olide at 100 μM was evaluated for ability to activity of recombinant hormone-sensitive lipase and hormone-sensitive lipase derived from a preparation of 3T3-cell lysate on glycerol-stabilized triolein.

lipoprotein lipase = biological target: T2, lipoprotein lipase (Homo sapiens, UniProt P06858); assay: Inhibition of lipoprotein lipase, glycerol stabilized triolein substrate; type: biochemical; conditions: test compound 100 μM
T2 sequence (P06858 28-475): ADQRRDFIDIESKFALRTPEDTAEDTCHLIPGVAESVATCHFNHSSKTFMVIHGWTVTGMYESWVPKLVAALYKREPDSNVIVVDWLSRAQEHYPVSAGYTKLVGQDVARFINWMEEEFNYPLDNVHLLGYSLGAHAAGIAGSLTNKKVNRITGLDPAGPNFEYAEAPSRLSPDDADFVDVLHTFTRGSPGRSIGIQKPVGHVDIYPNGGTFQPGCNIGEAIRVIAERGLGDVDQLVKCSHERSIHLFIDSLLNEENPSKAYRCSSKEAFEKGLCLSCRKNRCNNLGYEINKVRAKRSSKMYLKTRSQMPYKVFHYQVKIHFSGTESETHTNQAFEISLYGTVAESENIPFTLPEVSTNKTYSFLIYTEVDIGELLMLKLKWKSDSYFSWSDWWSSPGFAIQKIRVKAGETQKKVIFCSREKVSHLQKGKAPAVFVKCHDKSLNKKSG

inhibition at 100 µM ([1]; triolein 30 μM): 77%
inhibition at 100 µM ([1]; triolein 67 μM): 78%
inhibition at 100 µM ([1]; triolein 100 μM): 82%
inhibition at 100 µM ([1]; triolein 201 μM): 64%
inhibition at 100 µM ([1]; triolein 400 μM): 50%
inhibition at 100 µM ([1]; triolein 601 μM): 40%
inhibition at 100 µM ([1]; triolein 800 μM): 18%
inhibition at 100 µM ([1]; triolein 1000 μM): 27%
inhibition of lipoprotein lipase (in words) (lipoprotein lipase): failed to significantly inhibit
Lipoprotein Lipase + test compound (enzyme activity) (lipoprotein lipase; triolein substrate 30 μM): 0.7
Lipoprotein Lipase + test compound (enzyme activity) (lipoprotein lipase; triolein substrate 67 μM): 1.8
Lipoprotein Lipase + test compound (enzyme activity) (lipoprotein lipase; triolein substrate 134 μM): 4.9
Lipoprotein Lipase + test compound (enzyme activity) (lipoprotein lipase; triolein substrate 264 μM): 10.3
Lipoprotein Lipase + test compound (enzyme activity) (lipoprotein lipase; triolein substrate 1000 μM): 67.4
melting point: 181 to 183 °C
Compound: CC1C[C@H](OC(=O)c2ccccc2)C[C@]2(C)C[C@H]3OC(=O)[C@@H](C)[C@H]3CC12 (stereo partly drawn) [2α-benzoyloxy-4,5,7,8,11αH-eudesman-8,12-olide]
